Measurements: EP4289427A1, “DIHYDRO[1,8]NAPHTHYRIDIN-7-ONE AND PYRIDO[3,2-B][1,4]OXAZIN-3-ONE FOR USE IN TREATING CANCER, AND METASTASES IN PARTICULAR” (Anagenesis Biotechnologies, priority 2022, dated 2023)

What was measured:
[1] = system: RD cells; experiment: Cytotoxicity assay (CellTiter-Glo 2.0) on RD cells; type: cell-based, Human; settings: for IC50: Homo sapiens
In short: (§1)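 Each line is plated at a defined density in its growth medium and treated with test compounds for a duration set per cell line. Remaining viability is then measured by CellTiter-Glo 2.0 ATP luminescence and expressed as relative IC50.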

[2] = system: 4T1 cells; experiment: Cytotoxicity assay (CellTiter-Glo 2.0) on 4T1 cells; type: cell-based, Mouse; settings: incubation 2 days; for IC50: Mus musculus, 48 h
In short: as §1

[3] = system: MDA-MB-231 cells; experiment: Cytotoxicity assay (CellTiter-Glo 2.0) on MDA-MB-231 cells; type: cell-based, Human; settings: incubation 3 days; for IC50: Homo sapiens, 72 h
In short: as §1

[4] = system: EoL-1 cells; experiment: Cytotoxicity assay (CellTiter-Glo 2.0) on EoL-1 cells; type: cell-based, Human; settings: incubation 1 day; for IC50: Homo sapiens, EOL1, 24 h
In short: as §1

[5] = system: HUVECs; experiment: Tube formation assay (anti-angiogenic activity); type: cell-based, human; settings: incubation 16 to 18 hours; for IC50: Homo sapiens, HUVEC
In short: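 HUVECs plated at 5000 cells/well on reduced growth factor basement membrane matrix, then exposed to compounds for 16 to 18 hours at 37°C. Cells stained with calcein-AM; tube networks imaged by confocal fluorescence microscopy and quantified.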

[6] = system: 4T1 cells; experiment: Epithelial-mesenchymal transition marker expression by qRT-PCR; type: cell-based, Mouse; set-up: key: ↗: increased expression; ↘: decreased expression; =: unchanged expression levels; settings: 24 hours, expression normalized against RPL13
Excerpt: The epithelial-mesenchymal transition (hereafter "EMT") is a process by which epithelial cells lose their cell polarity and cell-cell adhesion while gaining migratory and invasive properties to become mesenchymal stem cells. EMT is commonly measured by quantifying both epithelial and mesenchymal marker's expression by quantitative reverse-transcription polymerase chain reaction (hereafter "qRT-PCR"). EMT inhibition is observed when epithelial markers are stable or increased while mesenchymal markers are decreased.
4T1 cells were treated with compounds to be tested or DMSO for 24 hours. 4T1 cells were then harvested directly in NucleoZol lysis buffer (cat. no. 740404.200 from Macherey-Nagel), according to the manufacturer's instructions. Total RNA was extracted using the NucleoSpin RNA set for NucleoZol (cat. no. 740406.50 from Macherey-Nagel). The quantity and purity of RNA was determined using a Quickdrop (Molecular Devices). RT-PCR was performed on 500 ng total RNA using iScript gDNA clear cDNA synthesis Kit (cat.no. 1725035 from Biorad). The qPCR was run on a QuantStudio 5 real time thermocycler (Applied Biosystems), with PowerUp SYBR Green Master Mix (cat.no. A25742 from Fisher Scientific) and the primers listed in Table 16.
Expression data of EMT markers have been normalized against expression data of the housekeeping gene RPL13.

[7] = system: RD cells; experiment: Differentiation of RD cells into myotubes (alpha-actinin staining); type: cell-based, Human; settings: 7 days, Figure 3
Experimental: RD cells are cancer cells of muscle origin that arose from myogenic precursors that fail to complete muscle differentiation. One strategy to stop their progression is to differentiate them into myotubes.
To allow differentiation, RD cells were seeded at a density of 3500 cells/well in a 384-well plate coated with collagen type I, in DMEM (4,5g/L glucose) with L-Gln (cat.no. 41965-039 from Gibco) supplemented with 5% of knockout serum replacement (cat.no. 10828-028 from Gibco), 1% PenStrep (Gibco), 1% MEM NEAA (Gibco) and 0.1 mM 2-mercaptoethanol (Gibco) (hereafter "K5 medium"). Compounds to be tested were then added onto the cells and incubated for 7 days at 37°C. On day 7, cells were fixed with 4% paraformaldehyde solution and immunostained for α-actinin (cat.no. EA-53 from Sigma, at 1/30000).

[8] = system: MDA-MB-231 cells; experiment: Scratch (wound healing) assay, cell migration; type: cell-based, Human; settings: 24 hours, Figure 1
Experimental: Cell migration is involved in several pathological cancer processes such as tumor invasion, neoangiogenesis and metastasis. Scratch (or wound healing) assay is a method to study two-dimensional cell migration in vitro. It is based on the observation that cells growing in a monolayer migrate to reestablish cell contacts after a mechanical scratch wound.
The MDA-MB-231 cells were seeded into a 24-well plate and grown to confluent density. A scrape was made in each well using a pipette tip. Then, the cells monolayers were incubated for 2 hours with 5 µg/ml mitomycin C to stop cell proliferation. The cells were treated with the compounds to be tested for 24 hours. The cells were stained using CellMask Green actin tracking stain (cat.no. A57246 from Fisher Scientific) at time zero and at endpoint. Pictures were acquired using a fluorescence microscope (IXM from Molecular Device). The scratch area was measured with the ImageJ software. The recovery of the scratch area was calculated as a percentage of the scratch area at time zero.

Structure (SMILES): CC(C)(C)c1cc(NC(=O)Nc2ccc(Oc3ccnc4c3CCC(=O)N4)cc2C(F)(F)F)on1 [Compound 023, 1-(3-tert-butylisoxazol-5-yl)-3-[4-[(7-oxo-6,8-dihydro-5H-1,8-naphthyridin-4-yl)oxy]-2-(trifluoromethyl)phenyl]urea]
- Cytotoxicity ([1]; 2 day-treatment): ++ (50% ≤ cytotoxicity < 85%)
- Cytotoxicity ([1]; 4 day-treatment): ++ (50% ≤ cytotoxicity < 85%)
- IC50 ([1]; 48 h, 2 day-treatment): 1 to 5 µM
- IC50 ([1]; 96 h, 4 day-treatment): 1 to 5 µM
- IC50 [2]: 1 to 5 µM
- Cytotoxicity [2]: +++ (cytotoxicity ≥ 85%)
- IC50 [3]: 1 to 5 µM
- Cytotoxicity [3]: ++ (50% ≤ cytotoxicity < 85%)
- IC50 [4]: 0.001 to 0.01 µM
- Cytotoxicity [4]: +++ (cytotoxicity ≥ 85%)
- IC50 [5]: 0.1 to 0.5 µM
- Angiogenesis inhibition [5]: +++ (angiogenesis inhibition ≥ 80%)
- Epithelial markers E-cadherin [6]: ↗
- Epithelial markers EpCAM [6]: =
- Mesenchymal markers Fibronectin [6]: ↘
- Mesenchymal markers Vimentin [6]: ↘

Structure (SMILES): CSc1cc(Oc2ccnc3c2CCC(=O)N3)ccc1NC(=O)Nc1cc(C(C)(C)C)nn1-c1cccc(F)c1 [Compound 013, 1-[5-tert-butyl-2-(3-fluorophenyl)pyrazol-3-yl]-3-[2-methylsulfanyl-4-[(7-oxo-6,8-dihydro-5H-1,8-naphthyridin-4-yl)oxy]phenyl]urea]
- Cytotoxicity ([1]; 2 day-treatment): ++ (50% ≤ cytotoxicity < 85%)
- Cytotoxicity ([1]; 4 day-treatment): ++ (50% ≤ cytotoxicity < 85%)
- IC50 ([1]; 48 h, 2 day-treatment): 1 to 5 µM
- IC50 ([1]; 96 h, 4 day-treatment): 5 to 10 µM
- IC50 [2]: < 1 µM
- Cytotoxicity [2]: +++ (cytotoxicity ≥ 85%)
- IC50 [3]: 1 to 5 µM
- Cytotoxicity [3]: ++ (50% ≤ cytotoxicity < 85%)
- IC50 [4]: 0.001 to 0.01 µM
- Cytotoxicity [4]: +++ (cytotoxicity ≥ 85%)
- IC50 [5]: < 0.1 µM
- Angiogenesis inhibition [5]: +++ (angiogenesis inhibition ≥ 80%)
- differentiation into myotubes [7]: dose-dependent differentiation into myotubes

Structure (SMILES): CSc1cc(Oc2ccnc3c2CCC(=O)N3)ccc1NC(=O)Nc1cc(C(C)(C)C)nn1-c1cncc(F)c1 [Compound 027, 1-[5-tert-butyl-2-(5-fluoro-3-pyridyl)pyrazol-3-yl]-3-[2-methylsulfanyl-4-[(7-oxo-6,8-dihydro-5H-1,8-naphthyridin-4-yl)oxy]phenyl]urea]
- Cytotoxicity ([1]; 2 day-treatment): ++ (50% ≤ cytotoxicity < 85%)
- Cytotoxicity ([1]; 4 day-treatment): ++ (50% ≤ cytotoxicity < 85%)
- IC50 ([1]; 48 h, 2 day-treatment): 1 to 5 µM
- IC50 ([1]; 96 h, 4 day-treatment): 1 to 5 µM
- IC50 [2]: < 1 µM
- Cytotoxicity [2]: +++ (cytotoxicity ≥ 85%)
- IC50 [3]: < 1 µM
- Cytotoxicity [3]: ++ (50% ≤ cytotoxicity < 85%)
- IC50 [4]: 0.001 to 0.01 µM
- Cytotoxicity [4]: +++ (cytotoxicity ≥ 85%)
- IC50 [5]: < 0.1 µM
- Angiogenesis inhibition [5]: +++ (angiogenesis inhibition ≥ 80%)
- Epithelial markers E-cadherin [6]: ↗
- Epithelial markers EpCAM [6]: =
- Mesenchymal markers Fibronectin [6]: ↘
- Mesenchymal markers Vimentin [6]: ↘

Structure (SMILES): Cc1ccc(-n2nc(C(C)(C)C)cc2NC(=O)Nc2ccc(Oc3ccnc4c3OCC(=O)N4)cc2C(F)(F)F)cn1 [Compound 040, 1-[5-tert-butyl-2-(6-methyl-3-pyridyl)pyrazol-3-yl]-3-[4-[(3-oxo-4H-pyrido[3,2-b][1,4]oxazin-8-yl)oxy]-2-(trifluoromethyl)phenyl]urea]
- Cytotoxicity ([1]; 2 day-treatment): ++ (50% ≤ cytotoxicity < 85%)
- Cytotoxicity ([1]; 4 day-treatment): ++ (50% ≤ cytotoxicity < 85%)
- IC50 ([1]; 48 h, 2 day-treatment): 5 to 10 µM
- IC50 ([1]; 96 h, 4 day-treatment): 5 to 10 µM
- IC50 [2]: < 1 µM
- Cytotoxicity [2]: +++ (cytotoxicity ≥ 85%)
- IC50 [3]: 1 to 5 µM
- Cytotoxicity [3]: ++ (50% ≤ cytotoxicity < 85%)
- IC50 [4]: 0.01 to 0.1 µM
- Cytotoxicity [4]: ++ (50% ≤ cytotoxicity < 85%)
- IC50 [5]: 0.1 to 0.5 µM
- Angiogenesis inhibition [5]: +++ (angiogenesis inhibition ≥ 80%)
- migration in the scratch assay [8]: inhibition of their migration

Structure (SMILES): CSc1cc(Oc2ccnc3c2OCC(=O)N3)ccc1NC(=O)Nc1cc(C(C)(C)C)on1 [Compound 021, 1-(5-tert-butylisoxazol-3-yl)-3-[2-methylsulfanyl-4-[(3-oxo-4H-pyrido[3,2-b][1,4]oxazin-8-yl)oxy]phenyl]urea]
- Cytotoxicity ([1]; 2 day-treatment): ++ (50% ≤ cytotoxicity < 85%)
- Cytotoxicity ([1]; 4 day-treatment): ++ (50% ≤ cytotoxicity < 85%)
- IC50 ([1]; 48 h, 2 day-treatment): 1 to 5 µM
- IC50 ([1]; 96 h, 4 day-treatment): 1 to 5 µM
- IC50 [2]: 1 to 5 µM
- Cytotoxicity [2]: ++ (50% ≤ cytotoxicity < 85%)
- IC50 [3]: 1 to 5 µM
- Cytotoxicity [3]: ++ (50% ≤ cytotoxicity < 85%)
- IC50 [4]: < 0.001 µM
- Cytotoxicity [4]: +++ (cytotoxicity ≥ 85%)
- IC50 [5]: 0.1 to 0.5 µM
- Angiogenesis inhibition [5]: +++ (angiogenesis inhibition ≥ 80%)
- differentiation into myotubes [7]: dose-dependent differentiation into myotubes

Structure (SMILES): Cc1ccc(-n2nc(C(C)(C)C)cc2NC(=O)Nc2ccc(Oc3ccnc4c3CCC(=O)N4)cc2C(F)(F)F)cc1 [Compound 010, 1-[5-tert-butyl-2-(p-tolyl)pyrazol-3-yl]-3-[4-[(7-oxo-6,8-dihydro-5H-1,8-naphthyridin-4-yl)oxy]-2-(trifluoromethyl)phenyl]urea]
- Cytotoxicity ([1]; 2 day-treatment): ++ (50% ≤ cytotoxicity < 85%)
- Cytotoxicity ([1]; 4 day-treatment): ++ (50% ≤ cytotoxicity < 85%)
- IC50 ([1]; 48 h, 2 day-treatment): 5 to 10 µM
- IC50 ([1]; 96 h, 4 day-treatment): 5 to 10 µM
- IC50 [2]: 1 to 5 µM
- Cytotoxicity [2]: +++ (cytotoxicity ≥ 85%)
- IC50 [3]: 1 to 5 µM
- Cytotoxicity [3]: ++ (50% ≤ cytotoxicity < 85%)
- IC50 [4]: 0.01 to 0.1 µM
- Cytotoxicity [4]: ++ (50% ≤ cytotoxicity < 85%)
- IC50 [5]: 0.1 to 0.5 µM
- Angiogenesis inhibition [5]: +++ (angiogenesis inhibition ≥ 80%)

Structure (SMILES): CSc1cc(Oc2ccnc3c2CCC(=O)N3)ccc1NC(=O)Nc1cc(C(C)(C)C)nn1-c1cccc(CN2CCOCC2)c1 [Compound 047, 1-[5-tert-butyl-2-[3-(morpholinomethyl)phenyl]pyrazol-3-yl]-3-[2-methylsulfanyl-4-[(7-oxo-6,8-dihydro-5H-1,8-naphthyridin-4-yl)oxy]phenyl]urea]
- Cytotoxicity ([1]; 2 day-treatment): ++ (50% ≤ cytotoxicity < 85%)
- Cytotoxicity ([1]; 4 day-treatment): ++ (50% ≤ cytotoxicity < 85%)
- IC50 ([1]; 48 h, 2 day-treatment): 5 to 10 µM
- IC50 ([1]; 96 h, 4 day-treatment): 1 to 5 µM
- IC50 [2]: < 1 µM
- Cytotoxicity [2]: +++ (cytotoxicity ≥ 85%)
- IC50 [3]: 1 to 5 µM
- Cytotoxicity [3]: ++ (50% ≤ cytotoxicity < 85%)
- IC50 [4]: 0.001 to 0.01 µM
- Cytotoxicity [4]: +++ (cytotoxicity ≥ 85%)
- IC50 [5]: < 0.1 µM
- Angiogenesis inhibition [5]: +++ (angiogenesis inhibition ≥ 80%)
